Residues, ends and D or L forms follow the SMILES beside them.
Columns and labels:
trypsin-3 = molecular target: T1, trypsin-3 (Homo sapiens, UniProt P35030); assay: Cleavage of peptides by purified trypsin-3, MALDI-TOF/TOF; conditions: 25 nM protease, 10 µM peptide; for TL disarming (D), Trypsin-3 / TL unmasking (U), Trypsin-3: PAR-based peptides, 37 °C, 2, 5, 10 and 30 min
T1 sequence (P35030 1-304): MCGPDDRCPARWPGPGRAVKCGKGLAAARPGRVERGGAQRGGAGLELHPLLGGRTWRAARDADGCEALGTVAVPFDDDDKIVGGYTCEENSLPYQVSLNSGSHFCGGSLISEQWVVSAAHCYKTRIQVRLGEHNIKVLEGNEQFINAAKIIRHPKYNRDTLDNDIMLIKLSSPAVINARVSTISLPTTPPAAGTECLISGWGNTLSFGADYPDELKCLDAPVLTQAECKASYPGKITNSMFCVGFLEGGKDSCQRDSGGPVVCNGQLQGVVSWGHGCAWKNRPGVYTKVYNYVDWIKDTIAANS
Excerpt: (§1) Trypsin-like proteases included in the experiments are trypsin-1, -2 and -3, tryptase (Enzo LifeSciences), thrombin (Sigma-Aldrich) and cathepsin G (Sigma-Aldrich). Trypsin-1, -2 and -3 were produced as described by Koistinen et al. and Wu et al.. Two elastase-like enzymes, neutrophil elastase (Enzo LifeSciences, Farmingdale, NY, USA) and pancreatic elastase I (Sigma-Aldrich) were included as well. All enzymes were from human origin except for pancreatic elastase from porcine pancreas.
(§2) Reaction mixtures with purified enzymes were compiled in an identical way. Each mixture contained an equimolar concentration of protease (25 nM based on) and 10 µM peptide of interest and was incubated for 2, 5, 10 and 30 min at 37 °C. Substance P was added as the standard peptide except for the reaction mixtures with substance P or bradykinin as the peptide of interest, where angiotensin II (Bachem) was added.
(§3) The TFA mixtures were thawed on ice and desalted using C18 zip-tips (Merck Millipore®, Burlington, MA, USA) with a capacity of 5 µg protein. Retained peptide fragments were eluted directly on the MALDI target plate. Next, 0.5 µL of a 2.5 mg/mL α-cyano-4-hydroxycinnamic acid (Sigma-Aldrich) matrix solution (in 70% acetonitrile, 0.1% TFA) was spotted on top of the sample. A 6-Peptide mixture Kit (AB Sciex, Framingham, MA, USA) containing bradykinin (2–9), angiotensin I, glu1-fibrinopeptide, ACTH (1–17), ACTH (18–39) and ACTH (7–38) was diluted with matrix and spotted on the plate as well.
(§4) MS and MS/MS data for peptide fragment identification were obtained with a MALDI-TOF/TOF instrument (4800 MALDI TOF/TOF™, Applied Biosystems, Waltham, MA, USA) and instrument parameters were set using 4000 Series Explorer™ software. MS spectra were recorded in positive reflector mode in a mass range from 500 to 4000 Da and laser intensity of 4500–4800 Hz. The spectra were calibrated using the calibration mixture mentioned above to a mass tolerance of 0.1 Da. MS/MS spectra were recorded with high-energy collision-induced dissociation and the laser intensity was increased by 10%. Precursor mass m/z 1570.65 (Glu1-Fibrinopeptide from the calibration mixture) was used to calibrate the MS/MS spectra to a mass tolerance of 0.1 Da.
(§5) MS and MS/MS spectra were processed using DataExplorer™ software and the obtained output files were uploaded in the MS-PEP data analyzer (https://bioit.shinyapps.io/PARs/ accessed 10/08/2020) for peptide fragment identification. Identified fragments were confirmed using the MS/MS spectra and mMass 5.5.0 by Martin Strohalm. The relative intensities of the fragments were calculated as the ratio of the intensity of the peak of interest to the intensity of the peak of the standard peptide.

tryptase = tryptase (Homo sapiens, UniProt Q15661); assay: Cleavage of peptides by purified tryptase, MALDI-TOF/TOF; conditions: 25 nM protease, 10 µM peptide; for TL disarming (D), Tryptase / TL unmasking (U), Tryptase: PAR-based peptides, 37 °C, 2, 5, 10 and 30 min
Excerpt: as §1, §2, §3, §4, §5

trypsin-1 = trypsin-1 (Homo sapiens, UniProt P07477); assay: Cleavage of peptides by purified trypsin-1, MALDI-TOF/TOF; conditions: 25 nM protease, 10 µM peptide; for Incubation time at which the first cleavage or decrease of the full-length peptide was observed, trypsin-1: 37 °C, time points 2, 5, 10, 30 min; for TL disarming (D), Trypsin-1 / TL unmasking (U), Trypsin-1: PAR-based peptides, 37 °C, 2, 5, 10 and 30 min
Excerpt: as §1, §2, §3, §4, §5

neutrophil elastase = molecular target: T2, neutrophil elastase (Homo sapiens, UniProt P08246); assay: Cleavage of peptides by purified neutrophil elastase, MALDI-TOF/TOF; conditions: 25 nM protease, 10 µM peptide; for TL disarming (D), Neutrophil Elastase / TL unmasking (U), Neutrophil Elastase: PAR-based peptides, 37 °C, 2, 5, 10 and 30 min
T2 sequence (P08246 30-267): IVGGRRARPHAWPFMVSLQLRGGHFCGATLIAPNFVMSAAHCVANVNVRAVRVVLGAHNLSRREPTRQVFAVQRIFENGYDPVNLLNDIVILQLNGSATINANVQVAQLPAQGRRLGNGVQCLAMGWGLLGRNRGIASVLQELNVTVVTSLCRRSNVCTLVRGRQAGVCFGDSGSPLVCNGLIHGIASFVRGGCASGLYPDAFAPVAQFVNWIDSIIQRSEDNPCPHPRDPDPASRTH
Excerpt: as §1
Reaction mixtures with purified enzymes were compiled in an identical way. […] Substance P was added as the standard peptide except for the reaction mixtures with substance P or bradykinin as the peptide of interest, where angiotensin II (Bachem) was added.
as §3
as §4, with “10%.” for “10%. Precursor mass m/z 1570.65 (Glu1-Fibrinopeptide from the calibration mixture) was used to calibrate the MS/MS spectra to a mass tolerance of 0.1 Da.”
Identified fragments were confirmed using the MS/MS spectra and mMass 5.5.0 by Martin Strohalm. The relative intensities of the fragments were calculated as the ratio of the intensity of the peak of interest to the intensity of the peak of the standard peptide.

trypsin-2 = trypsin-2 (Homo sapiens, UniProt P07478); assay: Cleavage of peptides by purified trypsin-2, MALDI-TOF/TOF; conditions: 25 nM protease, 10 µM peptide; for Incubation time at which the first cleavage or decrease of the full-length peptide was observed, trypsin-2: 37 °C, time points 2, 5, 10, 30 min; for TL disarming (D), Trypsin-2 / TL unmasking (U), Trypsin-2: PAR-based peptides, 37 °C, 2, 5, 10 and 30 min
Excerpt: as §1, §2, §3, §4, §5

thrombin = thrombin (Homo sapiens, UniProt P00734); assay: Cleavage of peptides by purified thrombin, MALDI-TOF/TOF; conditions: 25 nM protease, 10 µM peptide; for Incubation time at which the first cleavage or decrease of the full-length peptide was observed, thrombin: 37 °C, time points 2, 5, 10, 30 min; for TL disarming (D), Thrombin / TL unmasking (U), Thrombin: PAR-based peptides, 37 °C, 2, 5, 10 and 30 min
Excerpt: as §1, §2, §3, §4, §5

[1] = 37 °C, time points 2, 5, 10, 30 min

Chain of trypsin-2 (P07478 24-247): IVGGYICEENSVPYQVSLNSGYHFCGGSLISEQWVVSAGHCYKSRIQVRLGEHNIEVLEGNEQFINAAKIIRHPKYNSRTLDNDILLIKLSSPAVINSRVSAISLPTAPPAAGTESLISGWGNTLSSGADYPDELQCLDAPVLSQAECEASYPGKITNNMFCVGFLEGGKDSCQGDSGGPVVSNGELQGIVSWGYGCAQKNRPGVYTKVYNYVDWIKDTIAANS
Chain of tryptase (Q15661 31-275): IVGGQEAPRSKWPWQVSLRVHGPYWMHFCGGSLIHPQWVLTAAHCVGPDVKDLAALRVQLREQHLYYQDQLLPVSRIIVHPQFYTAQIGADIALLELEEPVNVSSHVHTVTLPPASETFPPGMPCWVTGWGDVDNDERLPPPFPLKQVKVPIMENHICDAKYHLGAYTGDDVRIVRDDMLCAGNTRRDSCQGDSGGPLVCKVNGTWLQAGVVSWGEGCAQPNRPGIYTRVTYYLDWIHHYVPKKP

TL disarming (D), Trypsin-3 (trypsin-3)	TL unmasking (U), Trypsin-3 (trypsin-3)	TL disarming (D), Tryptase (tryptase)	TL unmasking (U), Tryptase (tryptase)	Incubation time at which the first cleavage or decrease of the full-length peptide was observed, trypsin-1 (trypsin-1) [min]	TL disarming (D), Trypsin-1 (trypsin-1)	TL unmasking (U), Trypsin-1 (trypsin-1)	TL disarming (D), Neutrophil Elastase (neutrophil elastase)	TL unmasking (U), Neutrophil Elastase (neutrophil elastase)	Incubation time at which the first cleavage or decrease of the full-length peptide was observed, trypsin-2 (trypsin-2) [min]	TL disarming (D), Trypsin-2 (trypsin-2)	TL unmasking (U), Trypsin-2 (trypsin-2)	Incubation time at which the first cleavage or decrease of the full-length peptide was observed, thrombin (thrombin) [min]	TL disarming (D), Thrombin (thrombin)	TL unmasking (U), Thrombin (thrombin)	Incubation time at which the first cleavage or decrease of the full-length peptide was observed, trypsin-3 (trypsin-3; [1]) [min]	Incubation time at which the first cleavage or decrease of the full-length peptide was observed, tryptase (tryptase; [1]) [min]	Incubation time at which the first cleavage or decrease of the full-length peptide was observed, neutrophil elastase (neutrophil elastase; [1]) [min]	Structure (SMILES)
+ (processing after 10 or 30 min)	−	+++ (ultrafast processing within 2 min)	−	2	+++ (ultrafast processing within 2 min)	+++ (ultrafast processing within 2 min)	+++ (ultrafast processing within 2 min)	−	2	++ (fast processing after 5 min)	+++ (ultrafast processing within 2 min)	2	−	+++ (ultrafast processing within 2 min)				CC[C@H](C)[C@H](NC(=O)[C@@H]1CCCN1C(=O)[C@H](CC(C)C)NC(=O)[C@@H](NC(=O)[C@@H]1CCCN1C(=O)[C@H](CCCCN)NC(=O)[C@H](C)NC(=O)[C@H](CC(C)C)NC(=O)[C@H](CC(N)=O)NC(=O)[C@H](CC(N)=O)NC(=O)[C@@H](NC(=O)[C@H](CC(=O)O)NC(=O)[C@H](CC(N)=O)NC(=O)[C@H](CCC(=O)O)NC(=O)[C@H](CCSC)NC(=O)CN)[C@@H](C)O)[C@@H](C)O)C(=O)N[C@@H](CCCCN)C(=O)N[C@H](C(=O)N[C@@H](Cc1ccccc1)C(=O)N[C@@H](CCCNC(=N)N)C(=O)NCC(=O)N[C@@H](C)C(=O)N1CCC[C@H]1C(=O)N1CCC[C@H]1C(=O)N[C@@H](CC(N)=O)C(=O)N[C@@H](CO)C(=O)N[C@@H](Cc1ccccc1)C(=O)N[C@@H](CCC(=O)O)C(N)=O)[C@@H](C)O [PAR3-based] (H-GMENDTNNLAKPTLPIKTFRGAPPNSFE-NH2)
−	+++ (ultrafast processing within 2 min)	−	−	2	−	+++ (ultrafast processing within 2 min)	−	−	2	−	+++ (ultrafast processing within 2 min)	2	−	+++ (ultrafast processing within 2 min)	2	> 30	> 30	CC[C@H](C)[C@H](NC(=O)[C@H](CO)NC(=O)[C@@H]1CCCN1C(=O)[C@@H](NC(=O)[C@H](CO)NC(=O)[C@H](CC(=O)O)NC(=O)[C@H](CC(=O)O)NC(=O)CNC(=O)CNC(=O)CNC(=O)[C@@H](NC(=O)[C@H](CO)NC(=O)CNC(=O)[C@H](CO)NC(=O)[C@H](CCC(=O)O)NC(=O)[C@H](CC(=O)O)NC(=O)[C@H](Cc1ccc(O)cc1)NC(=O)[C@@H](NC(=O)[C@H](CO)NC(=O)[C@@H]1CCCN1C(=O)[C@@H](NC(=O)[C@H](CCC(N)=O)NC(=O)[C@@H](NC(=O)CNC(=O)CN)[C@@H](C)O)[C@@H](C)O)C(C)C)[C@@H](C)O)[C@@H](C)O)C(=O)N[C@@H](CC(C)C)C(=O)N1CCC[C@H]1C(=O)N[C@@H](C)C(=O)N1CCC[C@H]1C(=O)N[C@@H](CCCNC(=N)N)C(=O)NCC(=O)N[C@@H](Cc1ccc(O)cc1)C(=O)N1CCC[C@H]1C(=O)NCC(=O)N[C@@H](CCC(N)=O)C(=O)N[C@H](C(=O)N[C@@H](CS)C(=O)N[C@@H](C)C(=O)N[C@@H](CC(N)=O)C(=O)N[C@@H](CC(=O)O)C(N)=O)C(C)C [PAR4-based] (H-GGTQTPSVYDESGSTGGGDDSTPSILPAPRGYPGQVCAND-NH2)
